Measured values reported in US20220062166A1, “Self-Gelling Solutions for Administration of Therapeutics to the Inner Ear” (Spiral Therapeutics, Inc., priority 2019, published 2022).

How the values were obtained:
[1] = system: panel of receptors (44 GPCR and 4 non-GPCR), 4 ion channels, and 3 transporters; assay: Off-target selectivity panel; format: binding; settings: 10 μM
Method: (§1) To identify off-target activities of LPT99, its selectivity against a panel of receptors (44 G-protein-coupled receptors [GPCR] and 4 non-GPCR), 4 ion channels, and 3 transporters were analyzed. The cell line, HEI-OC1 (house ear institute organ of Corti 1), which expresses several characteristic markers of the organ of Corti sensory cells (Kalinec, et al. , Audiol. Neurootol. 2003, 8(4), 177-89), was used to evaluate the efficacy of LPT99 in preventing apoptosis due to […]. Cells were pre-incubated with LPT99, followed by […] for 24 hours.
(§2) For 14 of the tested targets—adenosine receptor 3 (A3); cholecystokinin: cholecystokinin receptor 1 (CCK1); melatonin receptor (MT1); neurokinin (NK2 and NK3); opioid (kOP and mOP); serotonin receptors (5HT-1A, 5HT-2A, 5HT−2B and 5HT−7); and vasopressin (V1A; Na+channel site 2 and Cl-GABA-gated channel)—the LPT99 affinity was >50%. At 1 μM, the inhibition of 13 of these targets was <50%, indicating a very low affinity with LPT99.

[2] = system: Cl-GABA-gated channel; assay: Off-target panel: Cl- GABA-gated channel; format: binding
Method: as §1, §2

[3] = GLP auditory safety study in rats after single TT administration; settings: rat, in vivo
Method: The study consisted of 10 groups of rats: 6 groups for toxicology (Groups 1 to 6, 20 males and 20 females per group), and 4 groups for toxicokinetics (Groups 7 to 10, 6 males and 6 females per group).
All animals were assessed weekly for body weights and qualitative food consumption. In addition, otoscopic evaluation of the dosing sites (tympanic membrane, Groups 1 to 6) and ABR testing for hearing function were performed at predosing; and on Days 1, 7, and/or 14. Animals in the toxicology groups (Groups 1 to 6) were sacrificed on Day 1 (10 males and 10 females per group) and Day 14 (the remaining 10 males and 10 females per group). At necropsy, terminal blood samples were tested for hematology, serum chemistry, and coagulation parameters. Gross observations were recorded, and selected organs were weighed. One ear per animal in Groups 1 to 5 was collected and processed for cytocochleogram assessment.

[4] = Toxicokinetic assessment in the acute IP toxicity study; format: in vivo, rat; settings: all tested dose levels
Method: (§3) LPT99 was suspended in vehicle [0.5% w/v methylcellulose and 0.1% v/v TWEEN® 80 in Milli-Q water] and administered intraperitoneally to Sprague-Dawley rats as a single dose at the doses of 100 (low—G2/G2TK), 300 (mid—G3/G3TK), and 750 (high—G4/G4TK) mg/kg body weight. The rats in vehicle control groups (G1/G1TK) received the vehicle alone. The dose volume administered was at an equivolume of 10 mL/kg body weight for all groups.
(§4) The main toxicity groups consist of 15 rats/sex/group in G1 and G4 groups and 10 rats/sex/group in G2 and G3 groups. The toxicokinetic groups consisted of 6 males and 6 female rats each for the prevention groups, whereas the vehicle control group had 3 male and 3 female rats.
Gender related differences were observed.

[5] = system: ion channels, including hERG potassium channels; assay: Effects on ion channels including hERG in CHO and HEK 293 cells; format: cell-based
Description: Torsadogenic refers to the development of torsade de Pointes (TdP) arrhythmias

[6] = target: T1, hERG (Homo sapiens, UniProt Q12809); assay: hERG automated patch clamp assay in hERG-CHO cells; format: cell-based; settings: detection limit 3.2 nM
T1 construct: expressed in transfected cells; host or cells: CHO
T1 sequence (Q12809 whole entry): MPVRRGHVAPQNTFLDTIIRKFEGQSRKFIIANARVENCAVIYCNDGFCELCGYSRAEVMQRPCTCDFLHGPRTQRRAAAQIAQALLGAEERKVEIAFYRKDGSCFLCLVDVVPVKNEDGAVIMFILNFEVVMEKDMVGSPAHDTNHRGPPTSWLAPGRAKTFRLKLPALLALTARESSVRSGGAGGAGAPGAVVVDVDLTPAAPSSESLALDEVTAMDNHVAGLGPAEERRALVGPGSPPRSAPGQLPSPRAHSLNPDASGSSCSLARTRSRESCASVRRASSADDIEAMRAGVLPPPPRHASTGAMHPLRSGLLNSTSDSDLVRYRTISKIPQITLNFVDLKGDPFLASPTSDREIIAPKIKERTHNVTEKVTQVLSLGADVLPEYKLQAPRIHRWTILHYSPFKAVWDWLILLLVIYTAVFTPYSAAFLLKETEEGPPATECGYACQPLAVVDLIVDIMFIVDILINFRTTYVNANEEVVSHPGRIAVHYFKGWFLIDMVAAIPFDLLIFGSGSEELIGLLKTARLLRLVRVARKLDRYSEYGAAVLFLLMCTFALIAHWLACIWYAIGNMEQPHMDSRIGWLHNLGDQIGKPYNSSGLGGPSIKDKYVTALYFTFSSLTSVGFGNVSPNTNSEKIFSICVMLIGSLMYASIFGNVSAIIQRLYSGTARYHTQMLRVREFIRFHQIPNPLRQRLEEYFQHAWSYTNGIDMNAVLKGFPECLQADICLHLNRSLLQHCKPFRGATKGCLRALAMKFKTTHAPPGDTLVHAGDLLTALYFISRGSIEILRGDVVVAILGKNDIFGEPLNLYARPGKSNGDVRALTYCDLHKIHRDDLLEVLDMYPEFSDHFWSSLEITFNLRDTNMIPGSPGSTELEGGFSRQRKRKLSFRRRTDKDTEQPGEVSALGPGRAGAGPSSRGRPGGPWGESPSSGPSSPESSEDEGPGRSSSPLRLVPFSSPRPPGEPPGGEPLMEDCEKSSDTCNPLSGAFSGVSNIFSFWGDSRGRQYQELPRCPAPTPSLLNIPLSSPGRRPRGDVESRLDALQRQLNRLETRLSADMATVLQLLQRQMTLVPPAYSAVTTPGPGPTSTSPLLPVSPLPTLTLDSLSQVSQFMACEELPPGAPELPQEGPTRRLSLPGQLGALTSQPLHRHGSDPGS
Description: The potential cardiotoxicity of LPT99 was investigated in an assay using the hERG-CHO cells transfected with the automated patch clamp assay.

[7] = system: HEI-OC1 cells; assay: Release of mitochondrial cyt c in HEI-OC1 cells with CisPt (flow cytometry); format: cell-based
Method: Flow cytometry was also used to characterize the effect of LPT99 in the release of mitochondrial cyt c in HEI-OC1 cells in vitro with CisPt prevention. Results
(§5) The effect of LPT99 on proliferation of non-apoptotic cells was studied. A549 cells were cultured in the presence of LPT99 for up to 6 days; the cell number was monitored by flow cytometry, and doubling time was calculated.

[8] = system: BALB/c 3T3 mouse fibroblasts; assay: In vitro phototoxicity in BALB/c 3T3 mouse fibroblasts; format: cell-based; settings: ≤100 μM
Method: An in vitro experiment was performed in BALB/c 3T3 mouse fibroblasts to determine the phototoxic potential of LPT99 at concentrations of ≤100 μM in 3T3L1 cells.

[9] = system: A549 cells; assay: Proliferation of non-apoptotic A549 cells (flow cytometry, doubling time); format: cell-based; settings: A549 cells cultured up to 6 days; reversible on removal
Method: as §5

[10] = system: CisPt-induced hearing loss; assay: Model of CisPt-induced hearing loss in rats (TT administration); format: in vivo, rat; settings: TT administration of LPT99 in hydrogel, dose dependent
Method: The protective effect of LPT99 was evaluated 3 days […] administration by functional measures, such as auditory brainstem response (ABR) threshold shift, DPOAE, and expression of biomarkers of apoptosis in cochlea and cytocochleograms.

[11] = Plasma concentrations after TT administration of LPT99-CD in female Wistar rats; format: in vivo, rat
[12] = Physical stability of drug product vials; format: physicochemical; settings: vials stored at 4C
Method: Vials of the drug product were stored at either room temperature or 4° C. for a period greater than three months. To test the LPT99 concentration in vials, the liquid drug product was filtered through sterile 0.2 micron filters.

[13] = system: opioid kOP; assay: Off-target panel: kOP; format: binding
Method: as §1, §2

[14] = GLP acute systemic toxicity study, single IP dose, Sprague-Dawley rats; format: in vivo, rat
Method: A GLP acute systemic toxicity study was conducted with LPT99 administered via IP injection in Sprague-Dawley rats. The acute systemic toxicity study was preceded by a non-GLP maximum tolerated dose (MTD) toxicity study, via the same administration and test system, which determined the MTD of LTP99 to be 1000 mg/kg.
as §3, §4

[15] = system: noise-induced ABR threshold shift; assay: Noise trauma ABR threshold study; format: in vivo; settings: at 10 and 21 days; TRAUMA+LPT99 group
[16] = Metabolic profile and stability in microsomal and S9 hepatic fractions; format: in vitro ADME, human, dog, rabbit, rat, and mouse
Description: The metabolic profile and stability of LPT99 was characterized in human, dog, rabbit, rat, and mouse microsomal and S9 fractions, and in human cytosolic fractions.

COc1ccc2[nH]cc(CCNC(=O)CC3C(=O)N(CCc4ccc(Cl)cc4Cl)CC(=O)N3CCc3cccs3)c2c1 (centres unmarked) [LPT99, 2-(4-(2,4-dichlorophenethyl)-3,6-dioxo-1-(2-(thiophen-2-yl)ethyl)piperazin-2-yl)-N-(2-(5-methoxy-1H-indol-3-yl)ethyl)acetamide]
in vitro inhibition for 41 of the tested targets [1]: < 50% | inhibition Cl-GABA-gated channel ([2]; 1 μM): < 50% | affinity (inhibition) Cl-GABA-gated channel ([2]; 10 μM): > 50% | hair cell loss (cytocochleogram) [3]: no reliable evidence of test-article-related hair cell loss | otoscopic scores (erythema, edema, wounds) of tympanic membranes [3]: no statistically significant changes | exposure in females vs males [4]: 1.5-5.5 fold | torsadogenic risk [5]: low torsadogenic risk | safety margin (hERG IC50 vs plasma detection limit) [6]: > 1063 | release of mitochondrial cyt c ([7]; HEI-OC1 cells, after CisPt alone or pre-incubated with LPT99): 68.1% ±1.0% | release of cyt c from mitochondria ([7]; cellular model of CisPt-induced apoptosis): decreased release of cyt c from mitochondria | cytotoxicity in presence or absence of ultraviolet-visible irradiation [8]: not cytotoxic | effect on proliferation of non-apoptotic cells [9]: delayed cellular proliferation by accumulation of cells at the G1 phase of the cell cycle | protection against CisPt-induced hearing loss vs vehicle control [10]: protected against CisPt-induced hearing loss | plasma concentration of 3.2 nM as fraction of administered dose ([11]; 50 μM dose): 0.006% | plasma concentration of 3.2 nM as fraction of administered dose ([11]; 100 μM dose): 0.003% | plasma concentration of 3.2 nM as fraction of administered dose ([11]; 200 μM dose): 0.0016% | plasma level after TT administration (not detectable; detection limit) ([11]; TT administration): < 3.2 nM | Plasma LPT99 concentrations (BLLQ) ([11]; female Wistar rats, 1 hour and 2, 4, 7, 15 days after single 50 μL TT dose of 50, 100, or 200 μM LPT99-CD): < 2 ng/mL | time to LPT99 precipitation [12]: approximately 2 months | inhibition kOP ([13]; 1 μM): < 50% | affinity (inhibition) kOP ([13]; 10 μM): > 50% | food consumption ([14]; 750 mg/kg, males days 1-7, females days 1-4, vs control): statistically significant reduction in the food consumption | tolerability ([14]; single IP 100, 300, 750 mg/kg): generally safe and well tolerated | ABR Threshold shift after noise exposure [15]: back at basal levels | number of metabolites formed through phase I biotransformation [16]: ≤ 9 | metabolized after 1 hour ([16]; microsomal and S9 hepatic fractions, all tested species): > 90%
